Data from patent publication US10501426B1, “Synthesis of thiazole derivative as anticancer and anti-antibiotics resistant bacteria agent” (priority 2019, dated 2019).

What was measured:
Assay in all cases: Antibiotic susceptibility testing, Vitek System
Format in all cases: cell-based, Staphylococcus epidermidis
S. epidermidis S2 = test system: S. epidermidis S2
Experimental: (§1) Compound 6, synthesized as above, was evaluated as an antimicrobial agent against selected antibiotics resistant Staphylococcus epidermidis. The bacterial strains were obtained from Laboratory (2b56) of the Botany and Microbiology Department, College of Science, King Saud University, Riyadh. The bacterial strains were isolated from the skin of healthy students and identified by an automated antibiotic susceptibility testing system, Vitek System (BioMerieux, France).

S. epidermidis S1 = test system: S. epidermidis S1
Experimental: as §1

S. epidermidis S3 = test system: S. epidermidis S3
Experimental: as §1
Note: key: S = susceptible; R = Resistant; I = intermediate.

Compound	susceptibility to standard antibiotics (S. epidermidis S2)	susceptibility to standard antibiotics (S. epidermidis S1)	susceptibility to standard antibiotics (S. epidermidis S3)
O=C(O)c1cn(C2CC2)c2cc(N3CCNCC3)c(F)cc2c1=O [Ciprofloxacin]	R	S	R
CCC[C@@H]1C[C@@H](C(=O)N[C@@H]([C@H]2O[C@H](SC)[C@H](O)[C@@H](O)[C@H]2O)[C@H](C)Cl)N(C)C1 [Clindamycin]	R	S	R
CCCCCCCCCC(=O)N[C@@H](Cc1c[nH]c2ccccc12)C(=O)N[C@H](CC(N)=O)C(=O)N[C@@H](CC(=O)O)C(=O)N[C@@H]1C(=O)NCC(=O)N[C@@H](CCCN)C(=O)N[C@@H](CC(=O)O)C(=O)N[C@H](C)C(=O)N[C@@H](CC(=O)O)C(=O)NCC(=O)N[C@H](CO)C(=O)N[C@@H]([C@H](C)CC(=O)O)C(=O)N[C@@H](CC(=O)c2ccccc2N)C(=O)O[C@@H]1C [Daptomycin]	R	S	R
CC[C@H]1OC(=O)[C@H](C)[C@@H](O[C@H]2C[C@@](C)(OC)[C@@H](O)[C@H](C)O2)[C@H](C)[C@@H](O[C@@H]2O[C@H](C)C[C@H](N(C)C)[C@H]2O)[C@](C)(O)C[C@@H](C)C(=O)[C@H](C)[C@@H](O)[C@]1(C)O [Erythromycin]	R	R	R
C[C@@H]1O[C@@H]1P(=O)(O)O [Fosfomycin]	S	S	S
CC(=O)O[C@H]1C[C@@]2(C)[C@@H](C[C@@H](O)[C@H]3[C@@]4(C)CC[C@@H](O)[C@@H](C)[C@@H]4CC[C@@]32C)/C1=C(\CCC=C(C)C)C(=O)O [Fusidic Acid]	R	S	R
C[C@H]1COc2c(N3CCN(C)CC3)c(F)cc3c(=O)c(C(=O)O)cn1c23 [Levofloxacin]	R	S	S
CC(=O)NC[C@H]1CN(c2ccc(N3CCOCC3)c(F)c2)C(=O)O1 [Linezolid]	R	S	R
C[C@@H](O)[C@H]1C(=O)N2C(C(=O)O)=C(SCCN=CN)C[C@H]12 [Lmipenem]	S	S	S
COc1c(N2C[C@@H]3CCCN[C@@H]3C2)c(F)cc2c(=O)c(C(=O)O)cn(C3CC3)c12 [Moxifloxacin]	R	S	S
C/C(=C\C(=O)OCCCCCCCCC(=O)O)C[C@@H]1OC[C@H](C[C@@H]2O[C@H]2[C@@H](C)[C@H](C)O)[C@@H](O)[C@H]1O [Mupirocin]	R	S	R
Cc1onc(-c2ccccc2)c1C(=O)N[C@@H]1C(=O)N2[C@@H]1SC(C)(C)[C@@H]2C(=O)O [Oxacillin]	R	S	R
CO[C@H]1/C=C/O[C@@]2(C)Oc3c(C)c(O)c4c(O)c(c(/C=N/N5CCN(C)CC5)c(O)c4c3C2=O)NC(=O)/C(C)=C\C=C\[C@H](C)[C@H](O)[C@@H](C)[C@@H](O)[C@@H](C)[C@H](OC(C)=O)[C@@H]1C [Rifampin]	R	S	R
CN(C)[C@@H]1C(O)=C(C(N)=O)C(=O)[C@@]2(O)C(O)=C3C(=O)c4c(O)cccc4[C@@](C)(O)[C@H]3C[C@@H]12 [Tetracycline]	S	S	S
CN[C@H](CC(C)C)C(=O)N[C@H]1C(=O)N[C@@H](CC(N)=O)C(=O)N[C@H]2C(=O)N[C@H]3C(=O)N[C@H](C(=O)N[C@H](C(=O)O)c4cc(O)cc(O)c4-c4cc3ccc4O)[C@H](O)c3ccc(c(Cl)c3)Oc3cc2cc(c3O[C@@H]2O[C@H](CO)[C@@H](O)[C@H](O)[C@H]2O[C@H]2C[C@](C)(N)[C@H](O)[C@H](C)O2)Oc2ccc(cc2Cl)[C@H]1O [Vancomycin]	R	S	S
Gentamicin	S	S	S
Teicoplanin	R	S	S
